US6541463B1, “Inhibitors of type 5 and type 3 17β-hydroxysteroid dehydrogenase and methods for their use” (Endorecherche, Inc., priority 1998, dated 2003)
Read-outs that look alike come from different tables or passages of the source.

System: Shionogi mouse mammary carcinoma cells
Assay: Antiandrogenic activity: inhibition of DHT-induced proliferation of Shionogi cells
Format: cell-based
Details: for IC50: Mus musculus
Procedure: The manner in which the inhibition is determined is described in “Other Tests; B-Androgenic/Antiandrogenic Activity”. Lower numbers are desirable. ND means that a determination was not done.
Androgenic/antiandrogenic activity of some preferred compounds has been measured using the Shionogi mouse mammary carcinoma cells.
Minimal essential culture medium (MEM), non-essential amino acids, and fetal calf serum were purchased from Flow Laboratories. In order to remove endogenous steroids, serum was incubated overnight at 4° C. with 1% activated charcoal (Norit A, Fisher) and 0.1% Dextran T-70 (Pharmacia). A 2-h supplementary adsorption was performed at 25° C. in order to further remove protein-bound steroids. Serum was also inactivated by a 20-min incubation at 56° C.
5α-dihydrotestosterone (DHT) was obtained from Steraloids. The antiandrogen hydroxyflutamide (OH-FLU) was kindly supplied by Drs. T. L. Nagabuschan and R. Neri (Schering Corporation, Kenilworth, U.S.A.).
Shionogi male mice bearing androgen-sensitive mammary tumors were obtained from Drs. Keishi Matsumoto, Osaka, Japan, and Yvonne Lefebvre, Ottawa, Canada. For primary culture, tumors were excised and washed in ice-cold sterile 25 mM Hepes buffer (137 mM NaCl; 5 mM KCl; 0.7 mM Na2HPO4; 10 mM glucose, pH 7.2). After mincing with scissors, the tumor minces were digested for 2 h at 37° C. in Hepes buffer containing 3.8 mg/ml collagenase (Clostridium, Boehringer), 1.5 mg/ml hyaluronidase II (Sigma), and 3% bovine serum albumin fraction V (Schwartz-Mann). Dispersed cells were collected by centrifugation (500×g for 10 min), washed twice by suspension in minimal essential medium (MEM) containing 5% dextran-coated charcoal-treated fetal calf serum (DCC-FCS), 1% non-essential amino acids, 10 IU/ml penicillin, 50 μg/ml streptomycin, and 100 nM dihydrotestosterone (DHT) (Steraloids).
Cells were plated in the same medium at a density of 75 000 cells/ml in 75 cm^2 flasks under an atmosphere of 5% carbon dioxide in air at 37° C. The medium was changed weekly. The steroids and antisteroids were dissolved in ethanol and kept in stock solutions chosen to yield final ethanol concentrations less than 0.01% in the culture medium.
Cells were subcultured at near-confidence by gentle digestion in a solution of 0.1% pancreatin (Flow Laboratories) in Hepes buffer containing 3 mM ethylenediaminetetraacetic acid (EDTA) (pH 7.2). Cells were pelleted by centrifugation, resuspended in culture medium, counted in a Coulter counter, and replated as described above. Soft agar cloning was performed as described (Stanley et al., Cell 10: 35-44, 1977) in the presence of 100 nM DHT.
Cells were plated in 24-well plates at a density of 20 000 cells/well. The indicated increasing concentrations of agents were added to triplicate dishes, and cells were grown for 10-12 days with changes of medium every 3-4 days. Cell number was measured by direct counting in a Coulter counter.
ED50 values of action of DHT and glucocorticoids were calculated according to a least-square regression as described (Rodbard, Endocrinology 94: 1427-1431, 1974). Statistical significance was calculated according to a multiple-range test (Kramer, Biometrics 12: 307-310,1956).

[1] = Table 4′, DHT-induced proliferation, E^−6 (10^−6 M)
[2] = Table 4′, DHT-induced proliferation, E^−7
[3] = read-out: Antiandrogenic Activity Shionogi, DHT [IC50]
[4] = Table 4′, bracketed values, read-out: Antiandrogenic Activity Shionogi, DHT [IC50 (nM)]

COCCOc1cc2c(cc1C#N)C1CC[C@@]3(C)C(CC[C@@]34CCC(C)(C)C(=O)O4)C1CC2 (some centres unmarked) [EM-1396] was tested, and the “Antiandrogenic Activity Shionogi, DHT E^−6” value [1] was −29% and the “Antiandrogenic Activity Shionogi, DHT E^−7” value [2] was −16%.

For CC1(C)CCC2(CCC3C4CCc5cc(C(=O)OCc6ccccc6)ccc5C4CCC32C)OC1=O (centres unmarked) [EM-1398], the “Antiandrogenic Activity Shionogi, DHT E^−6” value [1] was −37% and the “Antiandrogenic Activity Shionogi, DHT E^−7” value [2] was 0%.

CC1(C)CCC2(CCC3C4CCc5cc(O)c(C#N)cc5C4CCC32C)OC1=O (centres unmarked) [EM-01645] was tested, and the “Antiandrogenic Activity Shionogi, DHT E^−6” value [1] was −10% and the “Antiandrogenic Activity Shionogi, DHT E^−7” value [2] was −6%.

With COC(=O)C1CCC2(CCC3C4CCc5cc(O)ccc5C4CCC32C)OC1=O [PB-132-146, 3-Hydroxy-1,3,5(10)-estratrien-17(R)-2′-(5′-methoxycarbonyl-6′-oxo)tetrahydropyran] the “Antiandrogenic Activity Shionogi, DHT E^−6” value [1] was −40% and the “Antiandrogenic Activity Shionogi, DHT E^−7” value [2] was 14%.

With CC1(C)CC[C@@]2(CCC3C4CCc5cc6oncc6cc5C4CC[C@@]32C)OC1=O (stereo partly drawn) [EM-1407-CS, 1,3,5(10)-estratrien-(2,3-oximino)-17(R)-spiro-2′-(5′,5′-dimethyl-6′-oxo)tetrahydropyran] the “Antiandrogenic Activity Shionogi, DHT E^−6” value [1] was −96% and the “Antiandrogenic Activity Shionogi, DHT E^−7” value [2] was −16%.

In the case of CCS(=O)(=O)Oc1ccc2c(c1)CCC1C2CCC2(C)C1CCC21CCC(C)(C)C(=O)O1 (centres unmarked) [EM-1364-CS], the “Antiandrogenic Activity Shionogi, DHT E^−6” value [1] is reported as −59% and the “Antiandrogenic Activity Shionogi, DHT E^−7” value [2] is reported as −11%.

With CC1(C)CCC2(CCC3C4CCc5cc(O)c([N+](=O)[O-])cc5C4CCC32C)OC1=O (centres unmarked) [EM-1125-CS] the “Antiandrogenic Activity Shionogi, DHT E^−6” value [1] was −43% and the “Antiandrogenic Activity Shionogi, DHT E^−7” value [2] was −30%.

COCCOc1ccc2c(c1)CCC1C2CCC2(C)C1CCC21CCC(C)(C)C(=O)O1 [EM-1368-CS, 3-Methoxyethoxy-1,3,5(10)-estratrien-17(R)-spiro-2′-(5′,5′-dimethyl-6′-oxo)-tetrahydropyran] was tested, and the “Antiandrogenic Activity Shionogi, DHT E^−6” value [1] was −44% and the “Antiandrogenic Activity Shionogi, DHT E^−7” value [2] was 0%.

With CCC(=O)O[C@]1(C(C)=O)CCC2C3C=C(C)C4=CC(=O)C[C@H](C)[C@]4(C)C3CC[C@@]21C (some centres unmarked) [CS-243] the “Antiandrogenic Activity Shionogi, DHT” value (E^−6) was −129, the “Antiandrogenic Activity Shionogi, DHT” value (E^−7) was −102 and the IC50 [3] was 11 nM.

In the case of CN(C)CCOc1ccc2c(c1)CCC1C2CCC2(C)C1CCC21CCC(C)(C)C(=O)O1 (centres unmarked) [EM-1389-CS], the “Antiandrogenic Activity Shionogi, DHT E^−6” value [1] is reported as −103% and the “Antiandrogenic Activity Shionogi, DHT E^−7” value [2] is reported as −94%.

CC(=O)O[C@]1(C(=O)N(C)C)CCC2C3C=C(C)C4=CC(=O)CC[C@]4(C)C3CC[C@@]21C (some centres unmarked) [EM-1159] was tested, and the “Antiandrogenic Activity Shionogi, DHT” value (E^−6) was −71 and the “Antiandrogenic Activity Shionogi, DHT” value (E^−7) was 1.

With COC(=O)CCCC(=O)O[C@]1(C(C)=O)CC[C@H]2[C@@H]3C=C(C)C4=CC(=O)CC[C@]4(C)[C@H]3CC[C@@]21C [EM-1007, 6-Methyl-4,6-pregnadien-17α-ol-3,20-dione 4′-Carbomethoxybutyrate] the “Antiandrogenic Activity Shionogi, DHT” value (E^−6) was −76 and the “Antiandrogenic Activity Shionogi, DHT” value (E^−7) was −14.

In the case of CC1(C)CC[C@@]2(CC[C@H]3[C@@H]4CCc5c(cc(Br)c(O)c5Br)[C@H]4CC[C@@]32C)OC1=O [EM-1382-CS], the “Antiandrogenic Activity Shionogi, DHT E^−6” value [1] is reported as 0% and the “Antiandrogenic Activity Shionogi, DHT E^−7” value [2] is reported as 0%.

With COCCOc1cc2c(cc1C(=O)O)C1CCC3(C)C(CCC34CCC(C)(C)C(=O)O4)C1CC2 [EM-1405, 2-Carboxy-3-(2″-methoxyethyloxy)-1,3,5(10)-estratrien-17(R)-spiro-2′-(5′,5′-dimethyl-6′-oxo)tetrahydropyran] the “Antiandrogenic Activity Shionogi, DHT E^−6” value [1] was 0% and the “Antiandrogenic Activity Shionogi, DHT E^−7” value [2] was 0%.

For C=CCC1CCC2(CCC3C4CCc5cc(O)ccc5C4CCC32C)OC1=O [PB-132-152, 3-Hydroxy-1,3,5(10)-estratrien-17(R)-2′-(5′-allyl-6′-oxo)tetrahydropyran], the “Antiandrogenic Activity Shionogi, DHT E^−6” value [1] was −19% and the “Antiandrogenic Activity Shionogi, DHT E^−7” value [2] was 14%.

COCCOc1cc2c(cc1F)C1CCC3(C)C(CCC34CCC(C)(C)C(=O)O4)C1CC2 (centres unmarked) [EM-1393-CS] was tested, and the “Antiandrogenic Activity Shionogi, DHT E^−6” value [1] was −104% and the “Antiandrogenic Activity Shionogi, DHT E^−7” value [2] was 27%.

With COc1cc2c(cc1C)C1CCC3(C)C(CCC34CCC(C)(C)C(=O)O4)C1CC2 (centres unmarked) [EM-1412-CS] the “Antiandrogenic Activity Shionogi, DHT E^−6” value [1] was −60% and the “Antiandrogenic Activity Shionogi, DHT E^−7” value [2] was 0%.

For COc1ccc2c(c1)CCC1C2CCC2(C)C1CCC21CCC(C)(C)C(=O)O1 (centres unmarked) [EM-1370], the “Antiandrogenic Activity Shionogi, DHT E^−6” value [1] was −28% and the “Antiandrogenic Activity Shionogi, DHT E^−7” value [2] was 0%.

With CC1(C)CC[C@@]2(CCC3C4CCc5cc(C(N)=O)ccc5C4CCC32C)OC1=O (some centres unmarked) [EM-1404] the IC50 [4] was ~1000 nM.

For CN(C)C(=O)c1cc2c(cc1O)CCC1C2CCC2(C)C1CCC21CCC(C)(C)C(=O)O1 (centres unmarked) [EM-01661-B], the “Antiandrogenic Activity Shionogi, DHT E^−6” value [1] was −15% and the “Antiandrogenic Activity Shionogi, DHT E^−7” value [2] was 3%.

CCCC(=O)O[C@]1(C)C(=O)CCC2C3C=C(C)C4=CC(=O)CC[C@]4(C)C3CC[C@@]21C (some centres unmarked) [EM-1078] was tested, and the “Antiandrogenic Activity Shionogi, DHT E^−6” value (with DHT, E^−6) was −72 and the “Antiandrogenic Activity Shionogi, DHT E^−7” value (with DHT, E^−7) was −79.

Compound CC(=O)O[C@]1(C(C)=O)CCC2C3C=C(C)C4=CC(=O)CC[C@]4(C)C3CC[C@@]21C (some centres unmarked) [megestrol acetate, reference compound] has an IC50 [3] of 10 nM.

With CC1CCC2(CCC3C4CCc5cc(O)c([N+](=O)[O-])cc5C4CCC32C)OC1=O [EM-1131, 2-Nitro-1,3,5(10)-estratrien-3-ol-17(R)-spiro-2′-(5′-methyl-6′-oxo)tetrahydropyran] the “Antiandrogenic Activity Shionogi, DHT E^−6” value [1] was −47% and the “Antiandrogenic Activity Shionogi, DHT E^−7” value [2] was −15%.

For COCCOc1cc2c(cc1C(N)=O)C1CC[C@@]3(C)C(CC[C@@]34CCC(C)(C)C(=O)O4)C1CC2 (stereo partly drawn) [EM-1424, 2-Carbamoyl-3-(2″-methoxyethyloxy)-1,3,5(10)-estratrien 17(R)-spiro-2′-(5′,5′-dimethyl-6′-oxo)tetrahydropyran], the “Antiandrogenic Activity Shionogi, DHT E^−6” value [1] was −58% and the “Antiandrogenic Activity Shionogi, DHT E^−7” value [2] was −22%.

For CC1CCC2(CCC3C4CCc5cc(O)c([N+](=O)[O-])cc5C4CCC32C)OC1=O [EM-1126, 2-Nitro-1,3,5(10)-estratrien-3-ol-17(R)-spiro-2′-(5′-methyl-6′-oxo)tetrahydropyran], the “Antiandrogenic Activity Shionogi, DHT E^−6” value [1] was −49% and the “Antiandrogenic Activity Shionogi, DHT E^−7” value [2] was 0%.

With CC1(C)CCC2(CCC3C4CCc5cc(O)c(C(N)=O)cc5C4CCC32C)OC1=O (centres unmarked) [EM-01660] the “Antiandrogenic Activity Shionogi, DHT E^−6” value [1] was −51% and the “Antiandrogenic Activity Shionogi, DHT E^−7” value [2] was −20%.

CC1(C)CC[C@@]2(CCC3C4CCc5cc(C(=O)O)ccc5C4CC[C@@]32C)OC1=O (stereo partly drawn) [EM-1401, 3-Carboxy-1,3,5(10)-estratrien-17(R)-spiro-2′-(5′,5′-dimethyl-6′-oxo)tetrahydropyran] was tested, and the IC50 [4] was > 1000 nM.

With COc1ccc(CC(=O)O[C@]2(C(C)=O)CCC3C4C=C(C)C5=CC(=O)C=C[C@]5(C)C4CC[C@@]32C)cc1 (some centres unmarked) [EM-1291] the “Antiandrogenic Activity Shionogi, DHT” value (E^−6) was −48 and the “Antiandrogenic Activity Shionogi, DHT” value (E^−7) was −13.

For CC1=C[C@@H]2[C@H](CC[C@]3(C)C(=O)C4(CCCCC4)C[C@@H]23)[C@@]2(C)CCC(=O)C=C12 [EM-925], the “Antiandrogenic Activity Shionogi, DHT E^−6” value (with DHT, E^−6) was −7 and the “Antiandrogenic Activity Shionogi, DHT E^−7” value (with DHT, E^−7) was 15.

With COc1cc2c(cc1C(F)(F)F)C1CCC3(C)C(CCC34CCC(C)(C)C(=O)O4)C1CC2 [EM-1409, 3-Methoxy-2-trifluoromethyl-1,3,5(10)-estratrien-17(R)-spiro-2′-(5′,5′-dimethyl-6′-oxo)tetrahydropyran] the “Antiandrogenic Activity Shionogi, DHT E^−6” value [1] was −105% and the “Antiandrogenic Activity Shionogi, DHT E^−7” value [2] was −5%.

With CCC[C@@H]1CC2C3C=CC4=CC(=O)CC[C@]4(C)C3CC[C@]2(C)C1=O (some centres unmarked) [EM-1097] the “Antiandrogenic Activity Shionogi, DHT E^−6” value (with DHT, E^−6) was −71 and the “Antiandrogenic Activity Shionogi, DHT E^−7” value (with DHT, E^−7) was −3.

CC12CCC3c4ccc(F)cc4CCC3C1CCC21CCCC(=O)O1 (centres unmarked) [EM-1170-CS] was tested, and the “Antiandrogenic Activity Shionogi, DHT E^−6” value [1] was −38% and the “Antiandrogenic Activity Shionogi, DHT E^−7” value [2] was 15%.

In the case of CC1(C)CCC2(CCC3C4CCc5cc(OS(C)(=O)=O)ccc5C4CCC32C)OC1=O (centres unmarked) [EM-1365-CS], the “Antiandrogenic Activity Shionogi, DHT E^−6” value [1] is reported as −53% and the “Antiandrogenic Activity Shionogi, DHT E^−7” value [2] is reported as −17%.

For COCCOc1cc2c(cc1C(=O)N(C)C)C1CCC3(C)C(CCC34CCC(C)(C)C(=O)O4)C1CC2 (centres unmarked) [EM-1413-CS], the “Antiandrogenic Activity Shionogi, DHT E^−6” value [1] was −44%.
